Test results reported in PubChem BioAssay (NCI).
“And” between values parts separate entries of the source, which are not always exact repeats. Identical values can stand only once.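 A five-concentration, 48-hour dose response in 96-well plates underlies each endpoint, interpolated linearly between surrounding concentrations. GI50 = concentration required for 50% inhibition of growth. The concentration for full growth arrest is given as TGI.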

Experiments:
Assay in all cases: NCI tumour cell line growth inhibition, 48 h
NCI/ADR-RES ovarian = system: NCI/ADR-RES ovarian
T-47D breast = system: T-47D breast
DU-145 prostate = system: DU-145 prostate
KM12 colon = system: KM12 colon
HT29 colon = system: HT29 colon
HOP-62 NSCLC = system: HOP-62 NSCLC
SK-MEL-2 melanoma = system: SK-MEL-2 melanoma
SF-539 CNS = system: SF-539 CNS
SW-620 colon = system: SW-620 colon
U251 CNS = system: U251 CNS

SMILES	GI50 (NCI/ADR-RES ovarian) [µM]	TGI (NCI/ADR-RES ovarian) [µM]	GI50 (T-47D breast) [µM]	TGI (T-47D breast) [µM]	GI50 (DU-145 prostate) [µM]	TGI (DU-145 prostate) [µM]	GI50 (KM12 colon) [µM]	TGI (KM12 colon) [µM]	GI50 (HT29 colon) [µM]	TGI (HT29 colon) [µM]	GI50 (HOP-62 NSCLC)	TGI (HOP-62 NSCLC) [µM]	GI50 (SK-MEL-2 melanoma) [µM]	TGI (SK-MEL-2 melanoma) [µM]	GI50 (SF-539 CNS) [µM]	TGI (SF-539 CNS) [µM]	GI50 (SW-620 colon) [µM]	TGI (SW-620 colon) [µM]	GI50 (U251 CNS)	TGI (U251 CNS) [µM]
O=C(Cn1c(=O)c(-c2ccccc2)nc2ccccc21)Nc1ccc(F)cc1	> 100	> 100	50.8	> 100	43.4	> 100	> 100	> 100	> 100	> 100	49.8 µM	> 100	60.6	> 100	4.03	28.7	67	> 100	48 µM	> 100
COc1ccc(/C=C/C(=O)c2ccc(O)c(CN3CCN(c4cc5c(cc4F)c(=O)c(C(=O)O)cn5C4CC4)CC3)c2)cc1	4.44	> 100	1.83	> 100	1.47	> 100	1.27	> 100	1.08	> 100	1.97 µM	> 100	2.87	21	0.407	> 100	1.38	> 100	0.387 µM	> 100
C[C@]12CCc3sc(NCCc4ccccc4)nc3C1=CC[C@@H]1[C@@H]2CC[C@]2(C)C(=O)CC[C@@H]12	2.31	7.52	3.05	25.2	3.64	> 100	3.6	> 100	2.2	8.11	8.52 µM	> 100	17	> 100	1.69	3.62	2.3	5.28	4.97 µM	> 100
COc1cccc2c1ccc1nc3cccc(C(=O)N[C@H](C)CN(C)C)c3nc12	0.0721	0.554	0.159	0.974	0.0735	3.71	0.0724	2.33	0.0427	0.365	0.084 µM	0.787	0.175	0.643	0.157	1.8	0.039	0.694	0.0441 µM	8.28
COc1cccc(-c2nn(-c3ccccc3)cc2-c2ccnc(NCCCNC(=O)Nc3ccc(Cl)c(Cl)c3)c2)c1	2.19	5.39	2.41	11.4	5.47	23	2.75	11.3	2.55	5.19	3.23 µM	8.88	1.92	4.07	2.25	5.29	3.02	10.1	3.1 µM	11.7
COc1cc(NC(C)CCCN)c2ncccc2c1 (configuration not stated)		> 100		> 53.2		> 100		> 100		> 95.4	43.6 µM and > 91.6 µM	> 100		> 89.3		> 100		> 100	39 µM and 86.1 µM	> 100
COC(=O)c1ccccc1OCc1cc(=O)oc2ccc(C)cc12		> 100		> 100		> 100		> 100		> 100		> 57.5		> 85.4		78.5		> 100		35.4
